# Measured values published in patent US10081602B2, “Opioid agonists and uses thereof” (Nektar Therapeutics, priority 2013, dated 2018).
# Legend:
# [1] = test system: acetic acid-induced writhing (visceral pain) in mice; test: Acetic acid writhing (AAW) analgesic assay; assay type: in vivo
# Method: An analgesic assay was used to determine whether a given compound can reduce and/or prevent visceral pain in mice. The assay utilizes Swiss Albino or CD-1 male mice (5-10 mice per group), each mouse being approximately 0.015-0.030 kg on the study day. Mice were treated according to standard protocols.
# The animal was given an intraperitoneal (IP) injection of an irritant (acetic acid) that induces “writhing” which may include: contractions of the abdomen, twisting and turning of the trunk, arching of the back and the extension of the hindlimbs. Mice are given a single IP injection (0.1 mL/10 g bodyweight) of a 0.5% acetic acid solution. After the injection the animals were returned to their observation enclosure and their behavior was observed. Contractions were counted between 0 and 20 minutes after the injection. The animals were used once. In certain instances, the test articles were administered at multiple doses to determine a dose response curve.
# Table 4 provides the results for certain compounds of the present invention that were administered subcutaneously. Table 5 provides the results for certain compounds of the present invention that were administered orally.
# [2] = molecular target: human mu (MOR) opioid receptor (Homo sapiens (Human), UniProt P35372); test: Radioligand competition binding assay, mu opioid receptor; details: [3H]Naloxone; for inhibition at 10 µM: read-out: Mu receptor % inhibition at single concentration
# Method: The binding affinities of certain compounds of the present invention were evaluated using radioligand binding assays in membranes prepared from CHO-K1 cells expressing recombinant human kappa (KOR) or mu (MOR) opioid receptors.
# Competition binding experiments were conducted by incubating membrane protein to equilibrium in triplicate in the presence of a fixed concentration of radioligand and increasing concentrations of test compound for evaluation of binding to KOR or single concentration (10 μM) of test compound for evaluation of binding to MOR in 101 μL final volume. The radioligands used were specific for each receptor type, and the assay conditions are described in Table 1. Following incubations, the membranes were rapidly filtered through GF/B filter plate (presoaked with 0.5% polyethyleneimine), washed five times with cold 50 mM Tris-HCl, pH 7.5, and the bound radioactivity was then measured by liquid scintillation counting. Non-specific binding was measured in the presence of excess ligand; this value was subtracted from the total binding to yield the specific binding at each test concentration.
# Ki (affinity of test compound) was obtained using the Cheng Prusoff correction using experimental Kd (affinity of radioligand) values that were previously determined under these assay conditions. For MOR binding, compounds were tested at one concentration, 10 μM, to evaluate its ability to inhibit specific radioligand binding. The values are expressed as percent inhibition of specific binding and greater than 50% inhibition of binding was considered to be significant.
# With respect to determining MOR binding, an approach similar to one used for KOR binding was used.
# [3] = molecular target: MOR (Homo sapiens (Human), UniProt P35372); test: cAMP accumulation assay in forskolin-stimulated CHO-K1 cells stably expressing MOR; assay type: cell-based
# Method: Inhibition of cAMP accumulation by select compounds was measured in forskolin-stimulated CHO-K1 cells stably expressing KOR. CHO-K1 cells stably expressing KOR were harvested using Invitrogen Cell Dissociation Buffer, and then centrifuged at 1200 rpm for five minutes. The supernatant was aspirated and cells were resuspended in assay buffer to a density of 4×10^5 cells/mL. 25 μL of cells were added into a white half-area 96 well plate. Fourteen point serial dilutions of test compounds were carried out in assay buffer (PBS with 0.5 mM IBMX). Ketazocine was used as a positive control for each assay. 12.5 μL of compound was added to the cells in duplicate for each test concentration. The cells were then stimulated with 12.5 μL forskolin at a final concentration 20 μM. Cells were incubated for 45 minutes in a 37° C., 5% CO2 water jacketed incubator. CisBio HTRF cAMP assay reagent was used for cAMP quantitation. Two hours after substrate addition, signal at 665/615 nm was measured using the Perkin Elmer Victor X4 HTRF reader. Data analysis was done using GraphPad Prism, sigmoidal dose-response (variable slope) curve fitting.
# Using a similar approach, inhibition of cAMP accumulation by select compounds was also determined in forskolin-simulated CHO-K1 cells stably expressing MOR (wherein for this assay a density of 8×10^5 cells/mL was used and the positive control was DAMGO). […]
smiles,measurement,setting,value
"COCCOCCOCCOc1ccc2c(c1)[C@]1(C)CCN(CC3CC3)[C@H](C2=O)[C@@H]1C [Example 4, (2S,6R,11R)-3-(Cyclopropylmethyl)-8-{2-[2-(2-methoxyethoxy)ethoxy]ethoxy}-6,11-dimethyl-3,4,5,6-tetrahydro-2,6-methano-3-benzazocin-1(2H)-One]",AAW % Efficacy,"[1]; oral, 200 mg/kg",3.8%
same,AAW % Efficacy,"[1]; subcutaneous, 3 mg/kg",0.0%
same,AAW % Efficacy,"[1]; subcutaneous, 10 mg/kg",39.7%
same,AAW % Efficacy,"[1]; subcutaneous, 30 mg/kg",100.0%
same,inhibition at 10 µM,[2],89.2%
"COCCOCCOCCOCCOCCOCCOCCNc1ccc2c(c1)[C@]1(C)CCN(CC3CC3)[C@H](C2=O)[C@@H]1C [Example 3, (2S,6R,11R)-3-(Cyclopropylmethyl)-8-(2,5,8,11,14,17,20-heptaoxadocosan-22-ylamino)-6,11-dimethyl-3,4,5,6-tetrahydro-2,6-methano-3-benzazocin-1 (2H)-One]",inhibition at 10 µM,[2],80.6%
"COCCOCCOCCOCCOCCO[C@@H]1c2ccc(O)cc2[C@]2(C)CCN(CC3CC3)[C@H]1[C@@H]2C [Example 25, (1R,2S,6R,11R)-1-(2,5,8,11,14-pentaoxahexadecan-16-yloxy)-3-(cyclopropylmethyl)-6,11-dimethyl-1,2,3,4,5,6-hexahydro-2,6-methanobenzo[d]azocin-8-ol]",Ki,[2]; CHO-K1 membranes,3920 nM
same,EC50,[3],1210 nM
"C[C@H]1[C@H]2C(=O)c3ccc(O)cc3[C@]1(C)CCN2CC1CC1 [Ketazocine, (2S,6R,11R)-3-(cyclopropylmethyl)-8-hydroxy-6,11-dimethyl-3,4,5,6-tetrahydro-2,6-methanobenzo[d]azocin-1(2H)-one, reference compound]",AAW % Efficacy,"[1]; oral, 0.1 mg/kg",12.8%
same,AAW % Efficacy,"[1]; oral, 1 mg/kg",34.5%
same,AAW % Efficacy,"[1]; oral, 10 mg/kg",58.9%
same,AAW % Efficacy,"[1]; oral, 100 mg/kg",100.0%
same,AAW % Efficacy,"[1]; subcutaneous, 0.01 mg/kg",10.57%
same,AAW % Efficacy,"[1]; subcutaneous, 0.1 mg/kg",50.03%
same,AAW % Efficacy,"[1]; subcutaneous, 1 mg/kg",100.00%
same,inhibition at 10 µM,[2],99.2%
"COCCOCCOCCOCCOCCOCCOCCOc1ccc2c(c1)[C@]1(C)CCN(CC3CC3)[C@H](C2=O)[C@@H]1C [Example 6, (2S,6R,11R)-3-(Cyclopropylmethyl)-8-(2,5,8,11,14,17,20-heptaoxadocosan-22-yloxy)-6,11-dimethyl-3,4,5,6-tetrahydro-2,6-methano-3-benzazocin-1(2H)-One]",inhibition at 10 µM,[2],48.6%
"COCCOCCOCCOCCOCCNc1ccc2c(c1)[C@]1(C)CCN(CC3CC3)[C@H](C2=O)[C@@H]1C [Example 2, (2S,6R,11R)-3-(Cyclopropylmethyl)-6,11-dimethyl-8-(2,5,8,11,14-pentaoxahexadecan-16-ylamino)-3,4,5,6-tetrahydro-2,6-methano-3-benzazocin-1(2H)-One]",inhibition at 10 µM,[2],85.5%
